Conditions: 101.33 kPa, Liquid, Vibrating wire viscometry

CC(C)CCCC(C)CCCC(C)CCCCC(C)CCCC(C)CCCC(C)C (configuration not stated) [2,6,10,15,19,23-hexamethyltetracosane]
Conditions | viscosity [mPa·s]
283.77 K | 60.2
288.47 K | 46.1
293.29 K | 35.59
298.12 K | 27.95
303.07 K | 22.45
308.09 K | 18.3
313.13 K | 15
318.17 K | 12.5
323.19 K | 10.57
328.26 K | 8.99
333.2 K | 7.8
338.18 K | 6.81
343.07 K | 6
348.08 K | 5.32
353.08 K | 4.72
358.13 K | 4.2
362.98 K | 3.78

CCCCC(CC)COC(=O)c1ccccc1C(=O)OCC(CC)CCCC (configuration not stated) [bis(2-ethylhexyl) 1,2-benzenedicarboxylate]
Conditions | viscosity [mPa·s]
288.53 K | 110.7
293.38 K | 78.73
298.29 K | 57.94
303.33 K | 43.27
308.23 K | 33.17
313.18 K | 26.13
317.99 K | 21.08
323.02 K | 16.96
328.12 K | 13.91
333.19 K | 11.62
337.71 K | 9.903
343.53 K | 8.268
348.48 K | 7.158
353.68 K | 6.199

CCCCC(CC)COC(=O)CCCCCCCCC(=O)OCC(CC)CCCC (configuration not stated) [bis(2-ethylhexyl) decanedioate]
Conditions | viscosity [mPa·s]
284.06 K | 31.95
288.71 K | 25.84
293.37 K | 21.14
298.26 K | 17.42
303.1 K | 14.55
307.9 K | 12.37
313.24 K | 10.4
318.26 K | 9.023
323.17 K | 7.865
328.26 K | 6.878
333.2 K | 6.067
338.16 K | 5.435
342.81 K | 4.883
348.07 K | 4.38
352.98 K | 3.987
358.09 K | 3.626
